Source: patent US4833156A, “Treating amnesia with a pyrrolidone derivative” (Kirin Beer Kabushiki Kaisha, priority 1987, dated 1989)

How the values were obtained:
[1] = system: proline specific endopeptidase; test: Inhibition of proline specific endopeptidase activity (residual peptidase activity); assay type: biochemical; conditions: inhibitor concentration not given
Experimental: The inhibitory effects of the compounds represented by the formula (I) were determined by measuring the residual peptidase activity. The experimental procedure was agreed with the method by Tadashi Yoshimoto and Daisuke Tsuru: Tanpakushitsu, Kakusan and Koso, 29 (2), 127 (1984).

[2] = system: scopolamine induced amnesia in rats; test: Rat delayed-matching test (scopolamine-induced amnesia); assay type: in vivo, rat (SD, male, 150 to 300 g); conditions: for remission of scopolamine induced amnesia: oral, 20 min before test, (-)-scopolamine hydrochloride 0.06 mg/kg s.c., delay times 0.1, 4, 16, 32 s, FIG. 3 and FIG. 4
Source text: An apparatus equipped with two lever switches on the respective sides of the front face of the inside of an operant experimental box (25×31×33 cm), red lamps just above respective levers and a white lamp at a further upper position was used for the experiment. A rat bred under restricted feeding (SD, male, 150 to 300 g) was placed in the apparatus. Either one of the red lamps arranged on the right and left sides was lit for 5 seconds, and, at a specific time (delayed time) after it was turned off, the white lamp at the center was lit. The system of the apparatus was so set that if the lever which was at the side of the red lamp having lit was pushed, a feed pellet (ca. 50 mg) was given as a correct choice, and if another lever was pushed no pellet was given as an incorrect choice. After the training had been conducted to ensure that, in the test of delay time being 0.1 sec, the correct choice rate was maintained at the level of 80% or more for three consecutive days, the test was conducted. In the test, delay times were set at 0.1, 4, 16 and 32 seconds, and, at each of the delay times, 6 runs were conducted at random (24 runs in total, 1 run/minute). […] N-(4'-chlorobenzenesulfonyl)-2-pyrrolidone and aniracetam were administered orally in the form of suspensions in 0.3% Tween 80 at 20 minutes before test.

[3] = Acute toxicity, oral administration to mice; assay type: in vivo, mouse (ddY; conditions: mouse, in vivo, ddY male mice, 7 week old
Source text: (§1) Acute toxicity was evaluted by oral administration of the compounds to ddY male mice (7 week old).

ddY male mice = test: Acute toxicity, oral administration to mice; assay type: in vivo, mouse (ddY; conditions: 7 week old, result in words
Source text: as §1

[4] = system: cycloheximide (CXM)-induced amnesia in mice; test: Mouse step-down test (cycloheximide-induced amnesia); assay type: in vivo, mouse (ddY, male, 5 to 6 week old); conditions: conclusion for the mouse step-down test
Experimental: The test was carried out in accordance with the method described by Nabeshima et al.: Psychopharmacology, (1986) 89, 334-337. That is, a wooden platform (4×4×4 cm) was placed in the center on a floor of a stainless steel grid (30×30 cm), and the whole apparatus was surrounded with clear acrylic resin plates. In acquisition test, a mouse (ddY, male, 5 to 6 week old) was placed on the platform, and electric stimulus was applied for 20 seconds immediately after the mouse stepped down on the grid. Then the mouse was taken out of the apparatus and cycloheximide hydrochloride (30 mg/kg) was administered subcutaneously in order to induce amnesia. In the retention test, the mouse was again placed on the platform, and the time before the mouse stepped down on the grid was measured as the step-down latency. N-(4'-chlorobenzenesulfonyl)-2-pyrrolidone and aniracetam were individually suspended in 0.3% Tween 80 and administered orally at 20 minutes before acquisition test.

Row | SMILES | Residual Activity [1] | remission of scopolamine induced amnesia [2] | LD50 [3] | safety (ddY male mice) | anti-amnestic effect compared with aniracetam [4] | anti-amnestic effect compared with aniracetam ([2]; conclusion for the rat delayed-matching test)
1 | O=C1CCCN1S(=O)(=O)c1ccccc1 [Synthetic Example 5,6, N-benzenesulfonyl-2-pyrrolidone] | 51.3 |  |  |  |  | 
2 | COc1ccc(C(=O)N2CCCC2=O)cc1 [Aniracetam, aniracetam, reference compound] | 89.5 | did not remitted at all scopolamine induced amnesia |  |  |  | 
3 | O=C1CCCN1S(=O)(=O)c1ccc(Cl)cc1 [Synthetic Example 3,4, N-(4'-chlorobenzenesulfonyl)-2-pyrrolidone] | 51.3 | showed remission of scopolamine induced amnesia at several dosages and delay times | ≥ 2000 mg/kg | High level of safety | exhibited an anti-amnestic effect and was more effective than aniracetam | exhibited an anti-amnestic effect and was more effective than aniracetam
4 | Cc1ccc(S(=O)(=O)N2CCCC2=O)cc1 [Synthetic Example 1,2, N-(4'-toluenesulfonyl)-2-pyrrolidone] | 47.4 |  |  |  |  | 
